Legend:
Type in all cases: functional, cell-based
SGC-7901 = experiment: Cytotoxicity against Homo sapiens (human) SGC7901 cells by MTT assay
HCT-116 = experiment: Cytotoxicity against Homo sapiens (human) HCT116 cells by MTT assay
DU-145 = experiment: Cytotoxicity against Homo sapiens (human) DU145 cells by MTT assay
HeLa = experiment: Cytotoxicity against Homo sapiens (human) HeLa cells by MTT assay
K562 = experiment: Cytotoxicity against Homo sapiens (human) K562 cells by MTT assay

`O=c1cc(-c2ccccc2)oc2cc(OCCn3ccnc3)cc(O)c12` gave an IC50 (SGC-7901) of 5.55 µM, an IC50 (HCT-116) of 4.2 µM and an IC50 (DU-145) of 7.3 µM. The IC50 (HeLa) was 10.8 µM and the IC50 (K562) was 27.2 µM.

`O=c1cc(-c2ccccc2)oc2cc(OCCNCCO)cc(O)c12` showed an IC50 (SGC-7901) of 5.05 µM, an IC50 (HCT-116) of 2.3 µM and an IC50 (DU-145) of 5.5 µM. The IC50 (HeLa) was 4.46 µM and the IC50 (K562) was 8.31 µM.

Work on `CC(C)(C)NCCOc1cc(O)c2c(=O)cc(-c3ccccc3)oc2c1` yielded an IC50 (SGC-7901) of 3.15 µM, an IC50 (HCT-116) of 1.87 µM and an IC50 (DU-145) of 2.75 µM. It also gave an IC50 (HeLa) of 4.92 µM and an IC50 (K562) of over 100 µM.

`CN(C)CCOc1cc(O)c2c(=O)cc(-c3ccccc3)oc2c1` gave an IC50 (SGC-7901) of 11 µM, an IC50 (HCT-116) of 6.2 µM and an IC50 (DU-145) of 17.7 µM. For the same compound, the IC50 (HeLa) was 17.7 µM and the IC50 (K562) was 17.9 µM.

With `O=c1cc(-c2ccccc2)oc2cc(OCCN(CCO)CCO)cc(O)c12` the IC50 (SGC-7901) was 59.2 µM, the IC50 (HCT-116) was 22.2 µM and the IC50 (DU-145) was over 100 µM. The IC50 (HeLa) was 86.5 µM and the IC50 (K562) was 105 µM.

Compound `O=c1cc(-c2ccccc2)oc2cc(OCCN3CCCCC3)cc(O)c12` has an IC50 (SGC-7901) of 3.1 µM, an IC50 (HCT-116) of over 100 µM and an IC50 (DU-145) of 3.17 µM. It also gave an IC50 (HeLa) of 1.7 µM and an IC50 (K562) of 16.9 µM.

For `O=c1cc(-c2ccccc2)oc2cc(OCCN3CCNCC3)cc(O)c12`, the IC50 (SGC-7901) was over 100 µM, the IC50 (HCT-116) was 32.3 µM and the IC50 (DU-145) was 32.5 µM. For the same compound, the IC50 (HeLa) was over 100 µM and the IC50 (K562) was over 100 µM.

`O=c1cc(-c2ccccc2)oc2cc(OCCN3CCN(c4ccccc4)CC3)cc(O)c12` was tested, and the IC50 (SGC-7901) was over 100 µM, the IC50 (HCT-116) was over 100 µM and the IC50 (DU-145) was over 100 µM. It also gave an IC50 (HeLa) of over 100 µM and an IC50 (K562) of over 100 µM.

`CCCN(CCC)CCOc1cc(O)c2c(=O)cc(-c3ccccc3)oc2c1` showed an IC50 (SGC-7901) of 23.6 µM, an IC50 (HCT-116) of 38 µM and an IC50 (DU-145) of 8.4 µM. The IC50 (HeLa) was 1.56 µM and the IC50 (K562) was over 100 µM.

`CC(C)NCCOc1cc(O)c2c(=O)cc(-c3ccccc3)oc2c1` gave an IC50 (SGC-7901) of over 100 µM, an IC50 (HCT-116) of 8.1 µM and an IC50 (DU-145) of over 100 µM. The IC50 (HeLa) was over 100 µM and the IC50 (K562) was over 100 µM.

In the case of `CCCNCCOc1cc(O)c2c(=O)cc(-c3ccccc3)oc2c1`, the IC50 (SGC-7901) is reported as 11.1 µM, the IC50 (HCT-116) is reported as 1.5 µM and the IC50 (DU-145) is reported as 1.4 µM. It also gave an IC50 (HeLa) of 56.6 µM and an IC50 (K562) of 12.9 µM.

Work on `CCCCNCCOc1cc(O)c2c(=O)cc(-c3ccccc3)oc2c1` yielded an IC50 (SGC-7901) of 1.88 µM, an IC50 (HCT-116) of 2.7 µM and an IC50 (DU-145) of 1.85 µM. For the same compound, the IC50 (HeLa) was 40.9 µM and the IC50 (K562) was 14.9 µM.

`CC(C)N(CCOc1cc(O)c2c(=O)cc(-c3ccccc3)oc2c1)C(C)C` was tested, and the IC50 (SGC-7901) was 7.98 µM, the IC50 (HCT-116) was 4.6 µM and the IC50 (DU-145) was 18.1 µM. The IC50 (HeLa) was 24.2 µM and the IC50 (K562) was 27.8 µM.

Compound `CCCCN(CCCC)CCOc1cc(O)c2c(=O)cc(-c3ccccc3)oc2c1` has an IC50 (SGC-7901) of 53.3 µM, an IC50 (HCT-116) of 9.7 µM and an IC50 (DU-145) of 44.2 µM. It also gave an IC50 (HeLa) of 13.3 µM and an IC50 (K562) of 43.4 µM.

Compound `CNCCOc1cc(O)c2c(=O)cc(-c3ccccc3)oc2c1` has an IC50 (SGC-7901) of 4.8 µM, an IC50 (HCT-116) of 2.5 µM and an IC50 (DU-145) of 2.95 µM. It also gave an IC50 (HeLa) of 3.72 µM and an IC50 (K562) of 7.8 µM.

Compound `O=c1cc(-c2ccccc2)oc2cc(OCCN3CCOCC3)cc(O)c12` has an IC50 (SGC-7901) of 43 µM, an IC50 (HCT-116) of over 100 µM and an IC50 (DU-145) of over 100 µM. The IC50 (HeLa) was over 100 µM and the IC50 (K562) was over 100 µM.

For `O=c1[nH]cc(F)c(=O)[nH]1` [FLUOROURACIL], the IC50 (SGC-7901) was 2.19 µM and the IC50 (DU-145) was 2.95 µM.

For `O=c1cc(-c2ccccc2)oc2cc(OCCNc3ccccc3)cc(O)c12`, the IC50 (SGC-7901) was 69.8 µM, the IC50 (HCT-116) was 35.5 µM and the IC50 (DU-145) was 68.2 µM. For the same compound, the IC50 (HeLa) was over 100 µM and the IC50 (K562) was 31.2 µM.

`O=c1cc(-c2ccccc2)oc2cc(O)cc(O)c12` [CHRYSIN] showed an IC50 (SGC-7901) of over 100 µM, an IC50 (HCT-116) of over 100 µM and an IC50 (DU-145) of 9.81 µM. For the same compound, the IC50 (HeLa) was 43 µM and the IC50 (K562) was over 100 µM.

Compound `CN1CCN(CCOc2cc(O)c3c(=O)cc(-c4ccccc4)oc3c2)CC1` has an IC50 (SGC-7901) of 55.7 µM, an IC50 (HCT-116) of 18.7 µM and an IC50 (DU-145) of 28.7 µM. It also gave an IC50 (HeLa) of 47.4 µM and an IC50 (K562) of 23.9 µM.

Compound `CCN(CC)CCOc1cc(O)c2c(=O)cc(-c3ccccc3)oc2c1` has an IC50 (SGC-7901) of 13.9 µM, an IC50 (HCT-116) of 9.8 µM and an IC50 (DU-145) of 3.17 µM. The IC50 (HeLa) was 18.8 µM and the IC50 (K562) was 12.9 µM.

With `O=c1cc(-c2ccccc2)oc2cc(OCCNC3CCCCC3)cc(O)c12` the IC50 (SGC-7901) was 6.18 µM, the IC50 (HCT-116) was 2.95 µM and the IC50 (DU-145) was 4.98 µM. It also gave an IC50 (HeLa) of 6.97 µM and an IC50 (K562) of 1.76 µM.

`Cc1nccn1CCOc1cc(O)c2c(=O)cc(-c3ccccc3)oc2c1` showed an IC50 (SGC-7901) of 7.83 µM, an IC50 (HCT-116) of 3.2 µM and an IC50 (DU-145) of 8.2 µM. It also gave an IC50 (HeLa) of 9.7 µM and an IC50 (K562) of 10.8 µM.

From ChEMBL document CHEMBL3045913, “Synthesis and cytotoxicity of novel chrysin derivatives” (Med Chem Res, 2011)
